# Where a name gives a salt, the structure may show the parent alone.
# Biological target: NMDA receptor
# Test: NMDA receptor binding assay using [3H]CPP as antagonist ligand
# Conditions: in vitro, essentially as Murphy et al, J. Pharm. Exp. Ther. 240:778 (1987)
# Text: The activity of the compounds of the formula I is shown in vitro in an NMDA receptor binding assay based on the use of [^3 H]CPP as antagonist ligand in a manner essentially as set out by B. E. Murphy, et al, in J. Pharm. Exp. Ther. 240:778 (1987).
row,Compound,IC50 [µM]
1,"NC(C(=O)O)c1ccc(CC(=O)O)c(O)c1 (racemic) [Example I3, 1,4-Benzenediaoetic acid, α-amino-2-hydroxy-,-monohydrochloride, (±)]",< 100
2,"NC(C(=O)O)c1ccc(CC(=O)O)cc1 (racemic) [Example I1, 1,4-Benzenediacetic acid, α-amino-, (±)]",< 100
3,"NC(C(=O)O)c1ccc(O)c(CC(=O)O)c1 (stereo not drawn) [Example I2, α-Amino-4-hydroxy-1,3-benzenediacetic acid]",< 100
